Source: the supplement of paper PMC10883282
± gives the standard deviation of the averaged measurements.

Columns and labels:
[1] = tested on: SK-LMS-1; assay: standardised AUC of viability dose-response curve (72 h) (fraction (0-1)); higher = less growth inhibition (more resistant)
Outline: (§1)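 Sarcoma cell lines in 384-well plates were treated in triplicate for 72 h with 2.5 µl of compound dilution series (compound-plate series 10 mM to 0.0002 mM, 1:3 steps). ATPLite viability was scaled 1 (full) to 0 (none) and fitted per drug and cell line with a four-parameter log-logistic model. The standardised area under the dose-response curve in log-dose space (modified drexplorer computeAUC) runs from 1 (no response) to 0 (full response).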

[2] = tested on: HT1080; assay: as above
Outline: as §1

[3] = tested on: SW872; assay: as above
Outline: as §1

[4] = tested on: A204; assay: as above
Outline: as §1

[5] = tested on: RD-ES; assay: as above
Outline: as §1

[6] = tested on: KHOS-NP; assay: as above
Outline: as §1

[7] = tested on: SW982; assay: as above
Outline: as §1

[8] = tested on: VA-ES-BJ; assay: as above
Outline: as §1

[9] = tested on: KHOS-240S; assay: as above
Outline: as §1

[10] = tested on: SW1353; assay: as above
Outline: as §1

[11] = tested on: G401; assay: as above
Outline: as §1

[12] = tested on: SK-ES-1; assay: as above
Outline: as §1

[13] = tested on: RD; assay: as above
Outline: as §1

[14] = tested on: SW684; assay: as above
Outline: as §1

[15] = tested on: HS729; assay: as above
Outline: as §1

[16] = tested on: MES-SA; assay: as above
Outline: as §1

[17] = tested on: SYO-1; assay: as above
Outline: as §1

[18] = tested on: HT1080; assay: relative viability vs DMSO control (72 h) (fraction); higher = more viable cells
Outline: (§2)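 Sarcoma cell lines in 384-well plates, seeded to reach 80–90% confluence, were given compound after 24 h and kept 72 h at 37 °C, 5% CO2, with 0.1% DMSO vehicle and a 5 µM positive control. Relative viability came from ATPLite as percent growth, averaged over up to triplicate wells. On the rescaled values, 1 equals full and 0 equals none.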

[19] = tested on: RD-ES; assay: as above
Outline: as §2

[20] = tested on: KHOS-NP; assay: as above
Outline: as §2

[21] = tested on: SW684; assay: as above
Outline: as §2

[22] = tested on: SYO-1; assay: as above
Outline: as §2

COc1cc2ncnc(Nc3cccc(Cl)c3F)c2cc1OC(=O)N1CCN(C)C[C@H]1C [AZD-3759]
Settings | standardised AUC
[1] | 0.964
[2] | 0.975
[3] | 0.967
[4] | 0.958
[5] | 0.992
[6] | 0.969
[7] | 0.977
[8] | 0.955
[9] | 0.967
[10] | 0.922
[11] | 0.972
[12] | 0.972
[13] | 0.991
[14] | 0.978
[15] | 0.906
[16] | 0.974
[17] | 0.91

relative viability
Settings | [18] | [19] | [20] | [21] | [22]
0.00017 µM | 1.06 ± 0.033 | 0.97 ± 0.012 | 1.1 ± 0.033 | 1.14 ± 0.061 | 1.03 ± 0.029
0.00051 µM | 1.04 ± 0.017 | 0.967 ± 0.017 | 1.11 ± 0.019 | 1.16 ± 0.043 | 0.995 ± 0.045
0.00152 µM | 1.02 ± 0.016 | 0.9816 ± 0.0069 | 1.105 ± 0.006 | 1.16 ± 0.025 | 0.987 ± 0.058
0.00457 µM | 1.04 ± 0.015 | 0.977 ± 0.022 | 1.1 ± 0.019 | 1.13 ± 0.035 | 0.977 ± 0.055
0.01372 µM | 1.03 ± 0.016 | 0.983 ± 0.016 | 1.109 ± 0.011 | 1.15 ± 0.016 | 0.951 ± 0.062
0.04115 µM | 1.03 ± 0.051 | 0.991 ± 0.031 | 1.07 ± 0.019 | 1.12 ± 0.045 | 0.947 ± 0.089
0.1235 µM | 1.01 ± 0.041 | 0.9757 ± 0.0083 | 1.09 ± 0.018 | 1.11 ± 0.031 | 0.891 ± 0.1
0.3704 µM | 1.02 ± 0.019 | 0.9684 ± 0.0087 | 1.04 ± 0.028 | 1.14 ± 0.022 | 0.896 ± 0.067
1.111 µM | 1.026 ± 0.0062 | 0.961 ± 0.029 | 1.07 ± 0.031 | 1.16 ± 0.017 | 0.851 ± 0.031
3.333 µM | 1 ± 0.018 | 0.948 ± 0.021 | 0.998 ± 0.017 | 1.1 ± 0.05 | 0.783 ± 0.095
10 µM | 1.02 ± 0.0046 | 0.915 ± 0.048 | 1.02 ± 0.036 | 1.05 ± 0.053 | 0.614 ± 0.074
